In brackets after ≈: the same amount, converted by molar mass. Square brackets hold non-standard residues; d marks the D form. Ends that are not written are not given here. Peptide text beside a SMILES is read from it. * marks the point of attachment. NH(β-GlcNAc) = CC(=O)N[C@@H]1[C@@H](O)[C@H](O)[C@@H](CO)O[C@H]1N*
How the values were obtained:
[1] = tested on: VRE (E. faecalis) ATCC 51575; type: cell-based, Enterococcus faecalis; conditions: ATCC 51575, 18 h
Method: (§1) The minimum growth inhibitory concentrations of the antibacterial peptides of the present invention weremeasured, and the results are shown in Table 3 below.
(§2) Specifically, the strains were grown in CAMHB until the midlog phase, and then diluted with PBS buffer to 1× 10^6 cfu/ml to prepare the bacterial solution, and the antibacterial peptide prepared in Example 1above was diluted with CAMHB to 80 µM, 40 µM, 20 µM, 10 µM, 5 µM, 2.5 µM, 1.25 µM and 0.63 µM, and then the bacterial solution was treated with the same volume.
(§3) The results are the average value of three independent experiments.

[2] = tested on: MRPA (P. aeruginosa) CCARM 2180; type: cell-based, Pseudomonas aeruginosa; conditions: CCARM 2180, 18 h
Method: as §1, §2, §3

[3] = tested on: MRAB (A. baumannii) ATCC BAA 1605; type: cell-based, Acinetobacter baumannii; conditions: ATCC BAA 1605, 18 h
Method: as §1, §2, §3

[4] = tested on: MRSA (S. aureus) KCCM 40510; type: cell-based, Staphylococcus aureus; conditions: KCCM 40510, 18 h
Method: as §1, §2, §3

Molecule | MIC VRE (E. faecalis) ATCC 51575 [1] [µM] | MIC MRPA (P. aeruginosa) CCARM 2180 [2] [µM] | MIC MRAB (A. baumannii) ATCC BAA 1605 [3] [µM] | MIC MRSA (S. aureus) KCCM 40510 [4] [µM]
CC(C)[C@@H](NC(=O)[C@@H](Cc1c[nH]c2ccccc12)NC(=O)[C@@H](CCCNC(=N)N)NC(=O)[C@@H](CCCNC(=N)N)NC(=O)[C@H](N)CCCNC(=N)N)C(=O)N[C@H](Cc1c[nH]c2ccccc12)C(=O)N[C@H](Cc1c[nH]c2ccccc12)C(=O)N[C@@H](C(=O)N[C@@H](C(=O)N[C@H](Cc1c[nH]c2ccccc12)C(N)=O)C(C)C)C(C)C [KSH80, rrrwvwwvvw] (H-[dR][dR][dR][dW][dV][dW][dW][dV][dV][dW]-NH2; N-terminus assumed) | 1.25 (≈ 1.91 µg/mL) | 2.5 (≈ 3.82 µg/mL) | 10 (≈ 15.3 µg/mL) | 1.25 (≈ 1.91 µg/mL)
CC[C@@H](C)[C@@H](NC(=O)[C@@H](Cc1c[nH]c2ccccc12)NC(=O)[C@@H](CCCNC(=N)N)NC(=O)[C@@H](CCCNC(=N)N)NC(=O)[C@H](N)CCCNC(=N)N)C(=O)N[C@H](Cc1c[nH]c2ccccc12)C(=O)N[C@@H](C(=O)N[C@H](CC(C)C)C(=O)N[C@H](Cc1c[nH]c2ccccc12)C(=O)N[C@H](CCCCN)C(=O)N[C@H](CC(N)=O)C(N)=O)C(C)C [KSH68, rrrwiwvlwkn] (H-[dR][dR][dR][dW][dI][dW][dV][dL][dW][dK][dN]-NH2; N-terminus assumed) | 1.25 (≈ 2.01 µg/mL) | 2.5 (≈ 4.03 µg/mL) | 0.63 (≈ 1.02 µg/mL) | 1.25 (≈ 2.01 µg/mL)
CC[C@@H](C)[C@@H](NC(=O)[C@@H](Cc1c[nH]c2ccccc12)NC(=O)[C@@H](C)NC(=O)[C@@H](C)NC(=O)[C@H](N)Cc1c[nH]c2ccccc12)C(=O)NCC(=O)N[C@H](CC(C)C)C(=O)N[C@H](CCCNC(=N)N)C(=O)N[C@H](CCCNC(=N)N)C(=O)N[C@H](CCCNC(=N)N)C(N)=O [KSH69, waawiglrrr] (H-[dW][dA][dA][dW][dI]G[dL][dR][dR][dR]-NH2; N-terminus assumed) | >10 | >10 | 2.5 (≈ 3.21 µg/mL) | >10
CC(C)[C@@H](NC(=O)[C@@H](Cc1c[nH]c2ccccc12)NC(=O)CNC(=O)[C@@H](CCCNC(=N)N)NC(=O)[C@@H](CCCNC(=N)N)NC(=O)[C@H](N)CCCNC(=N)N)C(=O)N[C@H](Cc1c[nH]c2ccccc12)C(=O)N[C@@H](C(=O)N[C@@H](C(=O)N[C@H](Cc1c[nH]c2ccccc12)C(=O)N[C@H](CCCCN)C(N)=O)C(C)C)C(C)C [KSH90, rrrgwvwvvwk] (H-[dR][dR][dR]G[dW][dV][dW][dV][dV][dW][dK]-NH2; N-terminus assumed) | 1.25 (≈ 1.91 µg/mL) | 5 (≈ 7.63 µg/mL) | 5 (≈ 7.63 µg/mL) | 1.25 (≈ 1.91 µg/mL)
CC[C@@H](C)[C@@H](NC(=O)[C@@H](Cc1c[nH]c2ccccc12)NC(=O)[C@@H](CCCNC(=N)N)NC(=O)[C@@H](CCCNC(=N)N)NC(=O)[C@@H](CCCNC(=N)N)NC(=O)[C@@H](N)CC(=O)N[C@@H]1O[C@H](CO)[C@@H](O)[C@H](O)[C@H]1NC(C)=O)C(=O)N[C@H](Cc1c[nH]c2ccccc12)C(=O)N[C@@H](C(=O)N[C@H](CC(C)C)C(=O)N[C@H](Cc1c[nH]c2ccccc12)C(=O)N[C@H](CCCCN)C(N)=O)C(C)C [KSH47, Nrrrwiwvlwk] (H-D(NH(β-GlcNAc))[dR][dR][dR][dW][dI][dW][dV][dL][dW][dK]-NH2; N-terminus assumed) | 2.5 (≈ 4.54 µg/mL) | 10 (≈ 18.2 µg/mL) | 1.25 (≈ 2.27 µg/mL) | 2.5 (≈ 4.54 µg/mL)
CC(C)[C@@H](NC(=O)[C@@H](Cc1c[nH]c2ccccc12)NC(=O)[C@@H](CCCNC(=N)N)NC(=O)[C@@H](CCCNC(=N)N)NC(=O)[C@H](N)CCCNC(=N)N)C(=O)N[C@H](Cc1c[nH]c2ccccc12)C(=O)N[C@@H](C(=O)N[C@@H](C(=O)N[C@H](Cc1c[nH]c2ccccc12)C(=O)N[C@H](Cc1c[nH]c2ccccc12)C(N)=O)C(C)C)C(C)C [KSH81, rrrwvwvvww] (H-[dR][dR][dR][dW][dV][dW][dV][dV][dW][dW]-NH2; N-terminus assumed) | 1.25 (≈ 1.91 µg/mL) | 5 (≈ 7.64 µg/mL) | 10 (≈ 15.3 µg/mL) | 1.25 (≈ 1.91 µg/mL)

Second part, the molecule after the results:

MIC VRE (E. faecalis) ATCC 51575 [1] [µM] | MIC MRPA (P. aeruginosa) CCARM 2180 [2] [µM] | MIC MRAB (A. baumannii) ATCC BAA 1605 [3] [µM] | MIC MRSA (S. aureus) KCCM 40510 [4] [µM] | Molecule
20 | >40 | 5 | 20 | WLAWLYLRKKR-NH2 [LSH8]
2.5 | 20 | 1.25 | 2.5 | WLLWVLWRKKR-NH2 [LSH3]
